Measured values taken from publication PMC12362615, “Design, Synthesis, and Cellular Characterization of a New Class of IPMK Kinase Inhibitors” (Journal of Medicinal Chemistry, 2025).
Where “and” joins values, the source holds several entries; their conditions need not be identical. Identical values can stand only once. Like-named read-outs stand apart in the source and are kept apart here.

Assays:
[1] = target: T1, purified recombinant human IPMK kinase domain (Homo sapiens, UniProt Q8NFU5); test: IPMK IC50 determination, Kinase-Glo assay; format: biochemical
T1 sequence (Q8NFU5 with tags, fused parts or gaps): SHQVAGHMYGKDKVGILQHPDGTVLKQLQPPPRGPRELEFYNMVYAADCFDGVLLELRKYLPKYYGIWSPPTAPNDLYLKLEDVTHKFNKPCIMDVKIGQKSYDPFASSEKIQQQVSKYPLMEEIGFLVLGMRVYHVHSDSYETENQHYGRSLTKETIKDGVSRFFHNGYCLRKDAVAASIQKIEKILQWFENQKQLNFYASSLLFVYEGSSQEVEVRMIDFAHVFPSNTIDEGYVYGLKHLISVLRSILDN
Excerpt: (§1) These assay conditions were optimized with respect to reaction time, IPMK enzyme concentration, and IP3 concentration to determine the IC50 values for these ATP-competitive compounds.

[2] = system: purified recombinant human IPMK kinase domain; test: IPMK IC50 determination, Kinase-Glo assay; format: biochemical; conditions: compared to compound 1
Excerpt: as §1

[3] = target: T2, purified recombinant human IP6K2 kinase domain (Homo sapiens, UniProt Q9UHH9); test: IP6K2 IC50 determination, malachite green Pi release assay; format: biochemical; conditions: for IP6K2/IPMK: Table S1, ratio of IC50 values; for IC50: supplementary csv
T2 sequence (Q9UHH9 1-426): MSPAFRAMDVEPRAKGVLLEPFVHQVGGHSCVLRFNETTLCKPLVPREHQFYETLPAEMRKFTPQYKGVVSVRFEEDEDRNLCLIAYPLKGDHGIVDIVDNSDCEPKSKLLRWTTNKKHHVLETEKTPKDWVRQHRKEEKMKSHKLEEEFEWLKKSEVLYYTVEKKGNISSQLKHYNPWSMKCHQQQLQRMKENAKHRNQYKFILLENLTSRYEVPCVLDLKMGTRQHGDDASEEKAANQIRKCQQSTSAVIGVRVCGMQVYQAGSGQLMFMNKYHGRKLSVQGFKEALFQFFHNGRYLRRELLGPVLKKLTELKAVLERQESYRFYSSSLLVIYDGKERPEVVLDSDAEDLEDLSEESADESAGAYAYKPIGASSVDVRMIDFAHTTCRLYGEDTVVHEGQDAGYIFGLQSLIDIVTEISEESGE
Procedure: IP6K2 IC50 values were determined using the purified recombinant human IP6K2 kinase domain expressed in a 384-well clear polystyrene plate (VWR 82051-264). This human IP6K2 kinase domain (100 nM) was used at 37 °C in 50 μL reaction mixtures containing 5.0 μM human Dipp1, 50 mM Tris (pH 6.9), 10 mM MgCl2, 0.02% Triton X-100, 25 μM InsP6, and 50 μM ATP for 30 min. Pi release was determined with a malachite green colorimetric assay. Reactions were quenched by the addition of 12.5 μL of phosphate detection reagent (MAK3071KT, Sigma-Aldrich). Pi release was quantified from the absorbance at 620 nm by using appropriate standards.

[4] = Pharmacokinetic studies in mice; format: in vivo, male CD1 mice; conditions: IV, 3 mg/kg; for AUC(0-t) / Cmax / clearance / half-life / Vd: male, CD1, mouse, plasma; for Vd: read-out: Vss
Procedure: All the procedures related to animal handling, care, and treatment in this study were performed according to guidelines approved by the Institutional Animal Care and Use Committee (IACUC) of Pharmaron (PK-R-06012023 and PK-M-07182023), following the guidance of the Association for Assessment and Accreditation of Laboratory Animal Care (AAALAC). A group of 3 male CD1 mice (2 for exploratory PK) were dosed intravenously (IV) or intraperitoneally (IP) with a solution formulation of the tested compounds in 10% NMP, 5% Solutol in normal saline (v/v/v, 10:5:85). From each mouse, blood samples ([…]) were collected from the orbital vein such that samples were obtained at 0.083, 0.25, 0.5, 1, 2, 4, 8, and 24 h post dose. At each time point, blood samples were collected from three mice in labeled microcentrifuge tubes containing EDTA-K2 as an anticoagulant. Plasma samples were separated by centrifugation of whole blood and stored at −75 ± 15 °C until bioanalysis. All samples were processed for analysis by precipitation using acetonitrile (ACN) and analyzed with a fit-for-purpose LC/MS/MS method (the below quantifiable limit (BLOQ) was 5.0 ng/mL). Pharmacokinetic parameters were calculated by a noncompartmental analysis model using WinNonlin 8.3.

[5] = system: human U251-MG glioblastoma cells; test: CyQuant cell count / proliferation assay; format: cell-based; conditions: 400 nM, 48 h, vs DMSO
Procedure: 1 Compound 1 inhibits human U251 glioblastoma cell growth and labeled inositol phosphate levels. (A) Schematic of inositol phosphate metabolism. (B) Chemical structure of compound 1, indicating moiety A (blue highlight), the core (gray highlight), and moiety B (red highlight), and the IC50 value as determined by the kinase-GLO assay. (C) CyQuant cell count assay of 10,000 human U251-MG glioblastoma cells seeded per well, treated for 48 h with DMSO vehicle or 400 nM compound 1 (n = 8, ***p = 0.0046, unpaired t test). (D) HPLC analysis of ^3H-inositol phosphates from U251-MG cells treated with 400 nM compound 1 (red bars) or DMSO (blue bars) and metabolically labeled with ^3H-inositol for 48 h, expressed as the percentage of the inositol peak from the HPLC for InsP3, InsP4, InsP5, and InsP6, as indicated, *p < 0.05 by unpaired t test Bonferroni corrected for multiple comparisons. (E) Same data as in (D) replotted with a nonzero y-axis to facilitate visualizing differences between DMSO vs. compound treatment for each indicated inositol phosphate species, *p < 0.05 by unpaired t test Bonferroni corrected for multiple comparisons.
Error represents the standard error from 3 independent assays. (B) CyQuant cellular proliferation assay of 10,000 human U251-MG glioblastoma cells seeded per well, treated for 48 h with DMSO vehicle or 10 μM 14 (n = 8, ****p adj < 0.0001 by one-way ANOVA, Dunnett’s corrected; *p < 0.05 by unpaired t test). (C) HPLC analysis of ^3H-inositol phosphates from U251-MG cells treated with 10 μM compound 14 (red bars) or DMSO (blue bars) and metabolically labeled with ^3H-inositol for 48 h, expressed as a percentage of all the peaks detectable from the HPLC, *p < 0.05, **p < 0.01, ***p < 0.001 by unpaired t test compared to DMSO-treated control for all remaining panels, n = 3. (D) Same as (C) but expressed as a percentage of the inositol HPLC peak, n = 3. (E) Same as C but expressed as a percentage of all the inositol phosphate peaks combined from the HPLC, n = 3.

[6] = system: inositol phosphate levels in U251-MG cells; test: 3H-inositol metabolic labeling and HPLC of inositol phosphates; format: cell-based, human; conditions: 400 nM, 48 h, vs DMSO
Procedure: Human U251-MG glioblastoma cells (ECACC 09063001) were grown in DMEM supplemented with 10% FBS. The medium was changed to inositol-free DMEM, and cells were inositol-starved for 1–3 days. Cells were maintained in inositol-free DMEM medium, treated with the indicated inhibitor or DMSO for 1–2.5 h, and supplemented with 100 μCi ^3H-inositol (PerkinElmer) for 48 or 72 h, as indicated on each figure. Cells were then washed in PBS and lysed in 200 μL HCl (0.5 M), 250 μL of MeOH was added to each well of a 6-well plate (approximately 10^6 cells), followed by 125 μL of 2 M KCl. Lysates were scraped and sonicated on ice for three 1 min cycles. Inositol phosphate (IP) extracts were cleaned of lipids by adding 250 μL of CHCl3, vortexing and centrifuging samples for 2 min at 5000 rpm to separate upper aqueous and lower organic phases, upper phase contains soluble IPs. This extraction was repeated once. Samples were dried in a SpeedVac, resuspended in 10 mM ammonium phosphate (pH= 3.5), and filtered. HPLC separation and detection of the inositol species on the upper phase used a Partisphere SAX 4.6 mm × 250 mm column, eluted with 10 mM (buffer A) to 1.3 M (buffer B) ammonium phosphate (pH = 3.8) and online flow scintillation analyzer (FSA, PerkinElmer). Elution of [^32P]-labeled IP4, IP5, and IP6 standards confirmed the identity of each peak off the HPLC. Quantification represents three biologically independent metabolic labeling samples with error representing the standard deviation of the mean.

[7] = supplementary csv, read-out: IPMK IC50
[8] = Kinase-Glo assay, 12.5 μM Ins(1,4,5)P3, 10 μM ATP, read-out: IC50 toward recombinant human IPMK

Row | SMILES | IC50 [1, 7] [nM] | decrease of inhibitory activity toward IPMK compared to 1 [2] [fold] | IP6K2/IPMK [3] | IC50 [3] [nM] | IC50 [1, 8] | AUC(0-t) [4] [µM·h] | Cmax [4] [µM] | clearance [4] [mL/min/kg] | half-life [4] [h] | Vd [4] [L/kg] | Vss (L/kg) [4] | cell number, CyQuant DNA content assay [5] | accumulation of InsP4 [6] | accumulation of InsP5 [6] | accumulation of InsP6 [6]
1 | Cc1cc(C)cc(-c2onc3ccc([C@H]4C[C@@H]4C(=O)O)cc23)c1 (racemic) [Compound 2, (±)-trans-2-(3-(3,5-Dimethylphenyl)benzo[c]isoxazol-5-yl)cyclopropane-1-carboxylic acid] | 166 ± 19.6 | 6 | 1.6 | 265 ± 20 |  |  |  |  |  |  |  |  |  |  | 
2 | c1ccc(Oc2ccc(-c3onc4ccc(-c5nnn[nH]5)cc34)cc2)cc1 [Compound 9, 3-(4-Phenoxyphenyl)-5-(1H-tetrazol-5-yl)benzo[c]isoxazole] | 185 ± 15.5 |  | 5.1 | 942 ± 348 |  |  |  |  |  |  |  |  |  |  | 
3 | O=C(Nc1cccc(-c2onc3ccc(-c4nnn[nH]4)cc23)c1)C1CC1 [Compound 11, N-(3-(5-(1H-Tetrazol-5-yl)benzo[c]isoxazol-3-yl)phenyl)cyclopropanecarboxamide] | 30.2 ± 1.7 |  | 3.5 | 107 ± 64.4 | 30 ± 1.7 nM | 19.4 | 66.6 | 7.52 | 1.09 | 0.21 |  |  |  |  | 
4 | Clc1cnc(Oc2cccc(-c3onc4ccc(-c5nnn[nH]5)cc34)c2)c(Cl)c1 [Compound 13, 3-(3-((3,5-Dichloropyridin-2-yl)oxy)phenyl)-5-(1H-tetrazol-5-yl)benzo[c]isoxazole] | 72.1 ± 5.2 |  | 1.8 | 129 ± 44.1 |  | 7.7 | 50.5 | 15.5 | 2.01 | 0.27 | increased |  |  |  | 
5 | c1cc(OC2CCNCC2)cc(-c2onc3ccc(-c4nnn[nH]4)cc23)c1 [Compound 12, 3-(3-(Piperidin-4-yloxy)phenyl)-5-(1H-tetrazol-5-yl)benzo[c]isoxazole] | 31.3 ± 4 |  | 4.9 | 153 ± 79.8 | 31 ± 4 nM | 10.8 | 44 | 11.8 | 1.29 | 0.23 |  |  |  |  | 
6 | c1ccc(-c2onc3ccc(-c4nnn[nH]4)cc23)cc1 [Compound 6, 3-Phenyl-5-(1H-tetrazol-5-yl)benzo[c]isoxazole] | 36 ± 5.5 |  | 3.5 | 125 ± 66.2 |  |  |  |  |  |  |  |  |  |  | 
7 | Cc1cc(C)cc(-c2onc3ccc(/C=C/C(=O)O)cc23)c1 [Compound 1, (E)-3-(3-(3,5-Dimethylphenyl)benzo[c]isoxazol-5-yl)acrylic Acid] |  |  | 9.5 | 248 ± 119 | 26 nM and 26.2 nM |  |  |  |  |  |  | significant decrease in cell number | significantly decreased | significantly decreased | significantly decreased
8 | O=C(Nc1ccc(-c2onc3ccc(-c4nnn[nH]4)cc23)cc1)C1CC1 [Compound 10, N-(4-(5-(1H-Tetrazol-5-yl)benzo[c]isoxazol-3-yl)phenyl)cyclopropanecarboxamide] | 58.2 ± 3.4 |  | 5.1 | 297 ± 141 | 58 ± 3.4 nM |  |  |  |  |  |  |  |  |  | 
9 | Cc1cc(C)cc(-c2onc3ccc(C(=O)O)cc23)c1 [Compound 3] | 215 ± 37.5 | 8 |  |  |  |  |  |  |  |  |  |  |  |  | 
10 | FC(F)(F)c1ccc(-c2onc3ccc(-c4nnn[nH]4)cc23)cc1 [Compound 7, 5-(1H-Tetrazol-5-yl)-3-(4-(trifluoromethyl)phenyl)benzo[c]isoxazole] | 18.6 ± 1.4 |  | 7.8 | 146 ± 97.1 | 19 ± 1.4 nM |  |  |  |  |  |  |  |  |  | 
11 | FC(F)(F)Oc1ccc(-c2onc3ccc(-c4nnn[nH]4)cc23)cc1 [Compound 8, 5-(1H-Tetrazol-5-yl)-3-(4-(trifluoromethoxy)phenyl)benzo[c]isoxazole] | 18.3 ± 1.6 |  | 5.0 | 91.7 ± 50.9 | 18 ± 1.6 nM | 46.9 | 33 | 3.15 | 0.92 | 0.26 |  |  |  |  | 
